Results as given in publication PMC9731866, “Structures of a constitutively active mutant of human IDH3 reveal new insights into the mechanisms of allosteric activation and the catalytic reaction” (The Journal of Biological Chemistry, 2022).

Legend:
Format in all cases: binding
[1] = target: T1, αγ heterodimer of HsIDH3 (mutant form αMγ) (Homo sapiens, UniProt P50213+P51553, P50213:Q166A); test: X-ray crystal structure, […] Å; settings: allosteric site of gamma subunit
T1 construct: gene IDH3A; coexpressed alpha and gamma-TEV-His6 (pQlinkN), E. coli BL21(DE3) Codon-Plus, His6 tag cleaved with TEV; 1:1 heterodimer, mutant is heterotetramer (αMγ)2 of 131-149 kDa
T1 sequence (P50213 28-366 Q166A): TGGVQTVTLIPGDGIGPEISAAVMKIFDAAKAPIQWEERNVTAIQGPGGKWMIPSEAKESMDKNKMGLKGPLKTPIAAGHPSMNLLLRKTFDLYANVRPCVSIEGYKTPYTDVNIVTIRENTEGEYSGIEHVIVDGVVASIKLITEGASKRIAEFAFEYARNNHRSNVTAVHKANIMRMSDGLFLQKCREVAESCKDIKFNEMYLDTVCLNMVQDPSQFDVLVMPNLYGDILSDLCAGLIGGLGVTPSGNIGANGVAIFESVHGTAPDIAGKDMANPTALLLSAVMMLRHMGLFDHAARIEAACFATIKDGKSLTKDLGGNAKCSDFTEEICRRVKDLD
T1 sequence (P51553 40-393): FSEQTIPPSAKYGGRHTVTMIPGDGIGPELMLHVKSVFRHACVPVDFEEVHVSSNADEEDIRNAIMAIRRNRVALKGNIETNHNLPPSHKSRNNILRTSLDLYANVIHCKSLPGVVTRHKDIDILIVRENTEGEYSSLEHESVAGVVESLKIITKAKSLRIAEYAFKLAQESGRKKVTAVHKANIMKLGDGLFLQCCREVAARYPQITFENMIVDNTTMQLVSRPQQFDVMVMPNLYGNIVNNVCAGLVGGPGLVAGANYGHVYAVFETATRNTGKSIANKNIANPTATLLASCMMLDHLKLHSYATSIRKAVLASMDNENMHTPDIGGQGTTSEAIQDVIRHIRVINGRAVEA

[2] = target: T2, αβ heterodimer of HsIDH3 (mutant form αMβ) (Homo sapiens, UniProt O43837+P50213, P50213:Q166A); test: X-ray crystal structure, […] Å; settings: Mg2+ at active site; ADP at pseudo-allosteric site of beta subunit
T2 construct: gene IDH3A; coexpressed alpha and beta-TEV-His6 (pQlinkN), E. coli BL21(DE3) Codon-Plus, His6 tag cleaved with TEV; 1:1 heterodimer, mutant is heterotetramer (αMβ)2 of 131-149 kDa

[3] = target: T2, αβ heterodimer of HsIDH3 (mutant form αMβ); test: biolayer interferometry, biotinylated protein on streptavidin sensor

T2 sequence (O43837 35-385 limits assumed, one chain of several): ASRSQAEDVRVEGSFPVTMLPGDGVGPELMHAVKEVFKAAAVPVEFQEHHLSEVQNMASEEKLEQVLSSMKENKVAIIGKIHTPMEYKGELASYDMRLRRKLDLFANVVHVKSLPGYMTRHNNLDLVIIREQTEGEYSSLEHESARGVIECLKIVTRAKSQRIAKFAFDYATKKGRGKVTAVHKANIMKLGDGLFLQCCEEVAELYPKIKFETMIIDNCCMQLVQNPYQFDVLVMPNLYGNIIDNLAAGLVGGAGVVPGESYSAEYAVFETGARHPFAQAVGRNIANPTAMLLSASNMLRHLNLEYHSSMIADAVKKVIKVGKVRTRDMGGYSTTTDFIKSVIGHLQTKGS

SMILES	X-ray crystal structure, 2.50 Å [1]	X-ray crystal structure, 2.70 Å [2]	Kd [3] [µM]
O=C(O)CC(O)(CC(=O)O)C(=O)O [CIT]	there is a CIT bound at the allosteric site in the γ subunit		
Nc1ncnc2c1ncn2[C@@H]1O[C@H](COP(=O)(O)OP(=O)(O)O)[C@@H](O)[C@H]1O [ADP]		an ADP bound at the pseudo-allosteric site in the β subunit	522 ± 10
